In ChEMBL document CHEMBL4622963, “Optimization of Nicotinamides as Potent and Selective IRAK4 Inhibitors with Efficacy in a Murine Model of Psoriasis” (ACS Med Chem Lett, 2020):

Key:
[1] = Drug uptake in imiquimod-induced C57BL/6 mouse model of psoriasis at 1 mg/kg, po dosed via gavage twice daily and measured after 8 hrs by LC-MS analysis; type: ADME, organism-based; conditions: in vivo, read-out: Drug uptake
[2] = biological target: T1, Interleukin-1 receptor-associated kinase 4 (Homo sapiens, UniProt Q9NWZ3); test: Inhibition of IRAK4 (unknown origin) using FL-IPTSPITTTYFFFKKK peptide and ATP as substrate incubated for 60 mins by fluorescence based caliper assay
T1 sequence (Q9NWZ3 whole entry): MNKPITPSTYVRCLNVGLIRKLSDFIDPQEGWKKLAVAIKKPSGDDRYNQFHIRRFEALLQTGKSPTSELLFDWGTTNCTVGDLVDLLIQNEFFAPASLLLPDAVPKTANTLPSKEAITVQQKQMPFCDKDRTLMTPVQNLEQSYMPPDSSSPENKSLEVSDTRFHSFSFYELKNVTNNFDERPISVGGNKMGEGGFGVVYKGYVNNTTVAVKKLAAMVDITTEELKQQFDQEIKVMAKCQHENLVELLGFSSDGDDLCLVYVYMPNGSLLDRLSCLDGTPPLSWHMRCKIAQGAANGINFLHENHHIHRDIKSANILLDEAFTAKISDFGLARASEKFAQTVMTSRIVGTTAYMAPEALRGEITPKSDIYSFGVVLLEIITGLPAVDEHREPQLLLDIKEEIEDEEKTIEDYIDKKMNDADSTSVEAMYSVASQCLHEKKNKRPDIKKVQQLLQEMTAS

[3] = AUC in mouse at 2 mg/kg, iv administered as infusion measured up to 24 hrs by LC-MS analysis; type: ADME, organism-based; set-up: time < 24 hr, dose 2 mg/kg, route intravenous; conditions: in vivo
Homo sapiens [4] = species: Homo sapiens; test: Selectivity index, ratio of IC50 for recombinant N-terminal GST-tagged human cKit (544 to end residues) expressed in baculovirus infected Sf21 cells to IC50 for IRAK4 (unknown origin)
[5] = biological target: T1, Interleukin-1 receptor-associated kinase 4; test: Inhibition of IRAK4 in human PBMC assessed as inhibition of LTA-induced IL-6 production preincubated for 30 mins followed by LTA-stimulation and measured after 5 hrs by ELISA; type: cell-based
Mus musculus [6] = species: Mus musculus; test: animal or person; conditions: C57BL/6, po, 144 h, read-out: INH
[7] = Clearance in mouse at 2 mg/kg, iv administered as infusion or 5 mg/kg, po via gavage measured up to 24 hrs by LC-MS analysis; type: ADME, organism-based; conditions: in vivo
[8] = Drug uptake in imiquimod-induced C57BL/6 mouse model of psoriasis at 0.3 mg/kg, po dosed via gavage twice daily and measured after 2 hrs by LC-MS analysis; type: ADME, organism-based; conditions: in vivo, read-out: Drug uptake
[9] = Drug uptake in imiquimod-induced C57BL/6 mouse model of psoriasis at 10 mg/kg, po dosed via gavage twice daily and measured after 2 hrs by LC-MS analysis; type: ADME, organism-based; conditions: in vivo, read-out: Drug uptake
[10] = biological target: TRAF2 and NCK-interacting protein kinase (Homo sapiens, UniProt Q9UKE5); test: Inhibition of human wild type partial length TNIK (D4-K311 residues) expressed in bacterial expression system
Sequence of TRAF2 and NCK-interacting protein kinase (Q9UKE5 whole entry, the tested form may be a part): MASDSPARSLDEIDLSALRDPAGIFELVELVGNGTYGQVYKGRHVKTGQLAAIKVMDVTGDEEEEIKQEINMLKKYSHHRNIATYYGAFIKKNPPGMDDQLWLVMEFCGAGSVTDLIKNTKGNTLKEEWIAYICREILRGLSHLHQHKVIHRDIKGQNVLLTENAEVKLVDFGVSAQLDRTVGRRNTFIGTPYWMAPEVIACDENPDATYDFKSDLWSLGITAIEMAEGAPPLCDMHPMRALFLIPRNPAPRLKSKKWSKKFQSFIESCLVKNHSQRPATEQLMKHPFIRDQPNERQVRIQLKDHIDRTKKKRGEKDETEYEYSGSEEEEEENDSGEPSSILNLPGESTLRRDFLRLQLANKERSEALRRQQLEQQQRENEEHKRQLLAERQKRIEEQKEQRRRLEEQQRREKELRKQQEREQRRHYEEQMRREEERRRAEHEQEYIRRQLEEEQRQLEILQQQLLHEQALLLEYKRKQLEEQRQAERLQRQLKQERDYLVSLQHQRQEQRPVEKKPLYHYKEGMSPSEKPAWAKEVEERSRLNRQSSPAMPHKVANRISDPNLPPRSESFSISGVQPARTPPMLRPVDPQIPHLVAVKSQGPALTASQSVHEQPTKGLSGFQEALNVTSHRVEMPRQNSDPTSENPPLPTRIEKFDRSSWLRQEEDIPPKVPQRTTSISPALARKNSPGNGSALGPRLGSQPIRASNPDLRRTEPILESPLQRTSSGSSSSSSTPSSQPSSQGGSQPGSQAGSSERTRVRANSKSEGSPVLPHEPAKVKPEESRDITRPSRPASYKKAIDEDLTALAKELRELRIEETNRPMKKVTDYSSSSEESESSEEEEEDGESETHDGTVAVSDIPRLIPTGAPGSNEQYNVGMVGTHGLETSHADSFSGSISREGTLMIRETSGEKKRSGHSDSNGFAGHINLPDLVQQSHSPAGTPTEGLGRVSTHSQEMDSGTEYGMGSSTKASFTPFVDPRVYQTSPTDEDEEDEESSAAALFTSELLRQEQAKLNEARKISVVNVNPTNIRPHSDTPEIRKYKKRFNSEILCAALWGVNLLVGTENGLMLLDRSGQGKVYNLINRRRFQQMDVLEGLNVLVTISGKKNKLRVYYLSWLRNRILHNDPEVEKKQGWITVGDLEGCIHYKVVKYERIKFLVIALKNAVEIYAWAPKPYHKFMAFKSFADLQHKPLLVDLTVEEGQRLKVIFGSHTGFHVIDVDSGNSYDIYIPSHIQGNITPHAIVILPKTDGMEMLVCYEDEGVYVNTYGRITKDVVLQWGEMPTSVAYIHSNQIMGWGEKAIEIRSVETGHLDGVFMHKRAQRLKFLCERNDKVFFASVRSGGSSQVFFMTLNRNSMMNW

Mus musculus [11] = species: Mus musculus; test: animal or person; conditions: C57BL/6, po, 144 h, read-out: INH; remark: listed apart in the source
[12] = Volume of distribution at steady state in mouse at 2 mg/kg, iv administered as infusion or 5 mg/kg, po via gavage measured up to 24 hrs by LC-MS analysis; type: ADME, organism-based; conditions: in vivo, read-out: Vdss
[13] = Drug uptake in imiquimod-induced C57BL/6 mouse model of psoriasis at 1 mg/kg, po dosed via gavage twice daily and measured after 2 hrs by LC-MS analysis; type: ADME, organism-based; conditions: in vivo, read-out: Drug uptake
Mus musculus [14] = species: Mus musculus; test: animal or person; conditions: C57BL/6, po, 144 h, read-out: INH; remark: listed apart in the source
[15] = Stability in mouse liver microsomes assessed as parent compound remaining measured after 10 mins; type: ADME, Microsome; conditions: read-out: Stability
[16] = Drug uptake in imiquimod-induced C57BL/6 mouse model of psoriasis at 3 mg/kg, po dosed via gavage twice daily and measured after 2 hrs by LC-MS analysis; type: ADME, organism-based; conditions: in vivo, read-out: Drug uptake
[17] = biological target: T2, Interleukin-1 receptor-associated kinase 4 (Mus musculus) (UniProt Q8R4K2); test: In vivo Inhibition of IRAK4 in LTA-treated BALB/c mouse assessed as suppression of IL-6 level in serum at 1 mg/kg by ELISA relative to control; type: functional, organism-based
T2 sequence (whole entry): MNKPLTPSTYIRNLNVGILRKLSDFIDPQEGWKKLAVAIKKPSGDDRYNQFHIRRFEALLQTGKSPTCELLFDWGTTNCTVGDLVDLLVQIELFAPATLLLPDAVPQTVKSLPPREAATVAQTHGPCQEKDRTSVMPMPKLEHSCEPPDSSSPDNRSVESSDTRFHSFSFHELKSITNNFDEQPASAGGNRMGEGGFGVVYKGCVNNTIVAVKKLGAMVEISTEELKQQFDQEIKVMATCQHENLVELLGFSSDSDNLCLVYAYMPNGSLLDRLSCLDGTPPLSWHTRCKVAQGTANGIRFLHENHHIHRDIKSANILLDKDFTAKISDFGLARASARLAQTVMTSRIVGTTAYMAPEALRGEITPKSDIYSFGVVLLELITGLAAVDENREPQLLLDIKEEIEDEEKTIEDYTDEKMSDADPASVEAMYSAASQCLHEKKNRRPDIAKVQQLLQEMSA

[18] = biological target: Mast/stem cell growth factor receptor Kit (Homo sapiens, UniProt P10721); test: Inhibition of recombinant N-terminal GST-tagged human cKit (544 to end residues) expressed in baculovirus infected Sf21 cells
Sequence of Mast/stem cell growth factor receptor Kit (P10721 whole entry): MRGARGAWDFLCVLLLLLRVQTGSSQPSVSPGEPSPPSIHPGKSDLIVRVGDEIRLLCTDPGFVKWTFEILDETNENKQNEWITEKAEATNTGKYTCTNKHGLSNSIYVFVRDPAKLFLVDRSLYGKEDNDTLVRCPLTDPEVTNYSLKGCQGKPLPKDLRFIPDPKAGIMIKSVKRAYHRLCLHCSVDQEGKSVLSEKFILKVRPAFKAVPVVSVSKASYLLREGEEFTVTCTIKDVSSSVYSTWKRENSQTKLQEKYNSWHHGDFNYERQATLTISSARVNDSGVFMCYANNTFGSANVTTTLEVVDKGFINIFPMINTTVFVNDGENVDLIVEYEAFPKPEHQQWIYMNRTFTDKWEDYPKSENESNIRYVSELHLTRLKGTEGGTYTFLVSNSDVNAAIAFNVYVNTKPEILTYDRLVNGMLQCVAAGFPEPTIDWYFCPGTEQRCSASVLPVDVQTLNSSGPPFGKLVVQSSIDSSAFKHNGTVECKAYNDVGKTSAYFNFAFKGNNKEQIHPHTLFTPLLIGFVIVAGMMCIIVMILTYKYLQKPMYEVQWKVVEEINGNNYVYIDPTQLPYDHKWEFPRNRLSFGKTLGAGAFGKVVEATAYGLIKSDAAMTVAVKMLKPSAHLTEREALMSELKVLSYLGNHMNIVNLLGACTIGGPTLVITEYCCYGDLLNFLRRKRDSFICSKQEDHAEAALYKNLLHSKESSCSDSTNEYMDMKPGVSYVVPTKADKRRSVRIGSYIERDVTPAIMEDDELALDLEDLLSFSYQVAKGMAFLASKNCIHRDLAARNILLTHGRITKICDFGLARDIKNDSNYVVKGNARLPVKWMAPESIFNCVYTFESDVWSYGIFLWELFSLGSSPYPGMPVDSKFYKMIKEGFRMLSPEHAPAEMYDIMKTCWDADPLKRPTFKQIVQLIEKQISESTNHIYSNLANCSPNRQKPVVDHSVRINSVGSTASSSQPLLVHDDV

Homo sapiens [19] = species: Homo sapiens; test: Selectivity index, ratio of IC50 for N-terminal His6-tagged human full length recombinant LCK expressed in baculovirus infected Sf21 cells to IC50 for IRAK4 (unknown origin)
[20] = Toxicity in po dosed imiquimod-induced C57BL/6 mouse model of psoriasis assessed as drug tolerability; type: organism-based; conditions: in vivo
[21] = Drug uptake in imiquimod-induced C57BL/6 mouse model of psoriasis at 3 mg/kg, po dosed via gavage twice daily and measured after 8 hrs by LC-MS analysis; type: ADME, organism-based; conditions: in vivo, read-out: Drug uptake
[22] = biological target: T1, Interleukin-1 receptor-associated kinase 4; test: Inhibition of IRAK4 in human whole blood assessed as inhibition of LTA-induced IL-6 production preincubated for 30 mins followed by LTA-stimulation and measured after 5 hrs by ELISA; type: tissue-based

SMILES: CC(C)Nc1cc(Nc2nc3ccnn3cc2F)ncc1C(=O)NC[C@@H](F)C(C)(C)O
- concentration at 8 h [1]: 12 nM
- IC50 [2]: 3.4 nM
- AUC at 24 h [3]: 5 µM·h
- Ratio IC50 (Homo sapiens [4]): > 590
- IC50 [5]: 370 nM
- inhibition in vivo at 1 mg/kg (Mus musculus [6]): 27%
- clearance [7]: 15 mL/min/kg
- concentration at 2 h [8]: 42 nM
- concentration at 2 h [9]: 9400 nM
- IC50 [10]: 130 nM
- inhibition in vivo at 3 mg/kg (Mus musculus [11]): 41%
- Vd [12]: 2 L/kg
- concentration at 2 h [13]: 400 nM
- inhibition in vivo at 10 mg/kg (Mus musculus [14]): 64%
- remaining at 10 min [15]: 89%
- concentration at 2 h [16]: 1950 nM
- inhibition [17]: 68%
- IC50 [18]: > 2000 nM
- Ratio IC50 (Homo sapiens [19]): > 590
- Activity [20]: Non-Toxic
- concentration at 8 h [21]: 31 nM
- IC50 [22]: 920 nM
